Read-outs that look alike come from different tables or passages of the source.
Legend:
17β-HSD2 [1] = biological target: T1, 17β-HSD2 (Homo sapiens, UniProt P37059); experiment: Inhibition of 17β-HSD2 in MDA-MB-231 cellular assay; assay type: cell-based; settings: MDA-MB-231 cells, substrate [3H]-E2 200 nM
T1 sequence (P37059 1-387): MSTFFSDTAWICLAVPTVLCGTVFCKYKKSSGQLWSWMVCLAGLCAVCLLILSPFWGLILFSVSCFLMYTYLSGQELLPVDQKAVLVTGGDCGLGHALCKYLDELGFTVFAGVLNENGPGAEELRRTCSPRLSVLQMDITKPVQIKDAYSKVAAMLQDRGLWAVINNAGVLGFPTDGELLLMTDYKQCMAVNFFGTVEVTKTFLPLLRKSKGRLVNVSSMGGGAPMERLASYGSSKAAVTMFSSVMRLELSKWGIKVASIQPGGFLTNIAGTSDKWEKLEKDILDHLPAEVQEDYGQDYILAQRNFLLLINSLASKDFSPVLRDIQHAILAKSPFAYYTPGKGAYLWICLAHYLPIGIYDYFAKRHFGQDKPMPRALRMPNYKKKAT
Description: [^3H-E2] (200 nM) is used as substrate, and is incubated with the inhibitor for 3.5 h at 37° C. After ether extraction, substrate and product are separated by HPLC and detected with a radioflow detector following the method previously described.

17β-HSD2 [2] = biological target: T1, 17β-HSD2; experiment: Inhibition of 17β-HSD2 in cell-free assay; assay type: biochemical; set-up: 17β-HSD2 was obtained directly from the microsomal fraction; from tissue; host or cells: human placenta, microsomal fraction; settings: human placenta, microsomal fraction, substrate E2 500 nM, cofactor NAD+ 1500 μM
Description: (§1) Fresh human placenta was homogenized. Cytosolic and microsomal fractions were separated by centrifugation at 1000 g, 10000 g and 150000 g. 17β-HSD2 was obtained directly from the microsomal fraction. For the partial purification of 17β-HSD1, the cytosolic fraction was precipitated with ammonium sulfate. Aliquots containing 17β-HSD1 or 17β-HSD2 were stored frozen.
Inhibitor stock solutions were prepared in DMSO. Final concentration of DMSO was adjusted to 1% in all samples. The enzymatic reaction was started by addition of a mixture of unlabelled- and [^3H]-E2 (final concentration: 500 nM, 0.11 μCi). After 20 min at 37° C., the incubation was stopped with HgCl2 and the mixture was extracted with ether. After evaporation, the steroids were dissolved in acetonitrile. E1 and E2 were separated using acetonitrile/water (45:55) as mobile phase in a C18 RP chromatography column (Nucleodur C18, 3 μm, Macherey-Nagel, Duren) connected to a HPLC-system (Agilent 1100 Series, Agilent Technologies, Waldbronn). Detection and quantification of the steroids were performed using a radioflow detector (Berthold Technologies, Bad Wildbad). The conversion rate was calculated according to the following equation: […]

ERβ = ERβ (Homo sapiens, UniProt Q92731); experiment: ER affinity assay (ERβ), [3H]-E2 displacement; settings: Relative Binding Affinity, E2 = 100%; recombinant human protein
Description: (§2) The binding affinity of selected compounds to the ERα and ERβ was determined according to Zimmermann et al. (Zimmermann, J. et al., 3. Steroid Biochem. Mol. Biol., 94:57-66 (2005)) using recombinant human proteins. Briefly, 0.25 μM of ERα or ERβ, respectively, were incubated with [^3H]-E2 (10 nM) and test compound for 1 h at room temperature. The potential inhibitors were dissolved in DMSO (5% final concentration). Evaluation of non-specific-binding was performed with diethylstilbestrol (10 μM). After incubation, ligand-receptor complexes were selectively bound to hydroxyapatite (5 g/60 ml TE-buffer). The formed complex was separated, washed and resuspended in ethanol. For radiodetection, scintillator cocktail (Quickszint 212, Zinsser Analytic, Frankfurt) was added and the samples were measured in a liquid scintillation counter (Rack Beta Primo 1209, Wallac, Turku). […] The compound concentration to displace 50% of the receptor bound [^3H]-E2 were determined. Unlabelled E2 was used as a reference. For determination of the relative binding affinity (RBA) the ratio was calculated according to the following equation: […]
(§3) After the assay was established and validated a modification was made to increase throughput. […] Results were reported as RBA ranges.

17β-HSD1 = biological target: T2, 17β-HSD1 (Homo sapiens, UniProt P14061); experiment: Inhibition of 17β-HSD1 in cell-free assay; assay type: biochemical; settings: human placenta, cytosolic fraction, substrate E1 500 nM, cofactor NADH 500 μM
T2 construct: For the partial purification of 17β-HSD1, the cytosolic fraction was precipitated with ammonium sulfate; from tissue; host or cells: human placenta, cytosolic fraction
T2 sequence (P14061 1-328): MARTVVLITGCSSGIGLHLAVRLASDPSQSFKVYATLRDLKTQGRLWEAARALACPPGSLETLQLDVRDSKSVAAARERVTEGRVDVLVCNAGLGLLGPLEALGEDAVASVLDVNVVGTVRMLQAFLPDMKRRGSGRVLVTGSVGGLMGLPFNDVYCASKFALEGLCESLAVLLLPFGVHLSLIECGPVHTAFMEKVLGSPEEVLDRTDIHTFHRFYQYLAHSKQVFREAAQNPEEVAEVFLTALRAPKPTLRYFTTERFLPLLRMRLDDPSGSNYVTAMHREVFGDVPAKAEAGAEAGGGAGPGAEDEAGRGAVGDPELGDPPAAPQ
Description: as §1
The 17β-HSD1 inhibition assay was performed similarly to the 17β-HSD2 test. The cytosolic fraction was incubated with NADH [500 μM], test compound and a mixture of unlabelled- and [^3H]-E1 (final concentration: 500 nM, 0.15 μCi) for 10 min at 37° C. Further treatment of the samples and HPLC separation was carried out as mentioned above for 17β-HSD2.

ERα = biological target: T3, ERα (Homo sapiens, UniProt P03372); experiment: ER affinity assay (ERα), [3H]-E2 displacement; settings: Relative Binding Affinity, E2 = 100%; recombinant human protein
T3 sequence (P03372 1-595): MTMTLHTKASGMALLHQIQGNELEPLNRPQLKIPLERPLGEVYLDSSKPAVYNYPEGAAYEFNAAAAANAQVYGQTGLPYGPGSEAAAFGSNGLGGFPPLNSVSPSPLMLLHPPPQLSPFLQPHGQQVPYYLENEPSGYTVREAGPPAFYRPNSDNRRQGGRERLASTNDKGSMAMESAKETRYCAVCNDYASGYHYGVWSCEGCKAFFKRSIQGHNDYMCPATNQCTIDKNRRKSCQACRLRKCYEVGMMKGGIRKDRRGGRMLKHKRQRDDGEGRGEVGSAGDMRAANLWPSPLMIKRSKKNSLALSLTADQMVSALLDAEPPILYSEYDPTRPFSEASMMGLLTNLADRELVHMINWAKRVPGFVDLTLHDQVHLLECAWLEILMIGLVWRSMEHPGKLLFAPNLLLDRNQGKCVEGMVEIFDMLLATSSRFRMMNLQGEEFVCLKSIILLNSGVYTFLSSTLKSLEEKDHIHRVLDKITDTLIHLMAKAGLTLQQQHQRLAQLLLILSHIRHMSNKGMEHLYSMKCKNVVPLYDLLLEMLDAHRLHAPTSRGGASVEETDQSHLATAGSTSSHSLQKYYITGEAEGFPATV
Description: as §2, §3

osteoporosis model = settings: monkeys; cited from earlier work
17β-HSD2 [3] = biological target: T1, 17β-HSD2; settings: cited from earlier work

Chain of ERβ (Q92731 whole entry): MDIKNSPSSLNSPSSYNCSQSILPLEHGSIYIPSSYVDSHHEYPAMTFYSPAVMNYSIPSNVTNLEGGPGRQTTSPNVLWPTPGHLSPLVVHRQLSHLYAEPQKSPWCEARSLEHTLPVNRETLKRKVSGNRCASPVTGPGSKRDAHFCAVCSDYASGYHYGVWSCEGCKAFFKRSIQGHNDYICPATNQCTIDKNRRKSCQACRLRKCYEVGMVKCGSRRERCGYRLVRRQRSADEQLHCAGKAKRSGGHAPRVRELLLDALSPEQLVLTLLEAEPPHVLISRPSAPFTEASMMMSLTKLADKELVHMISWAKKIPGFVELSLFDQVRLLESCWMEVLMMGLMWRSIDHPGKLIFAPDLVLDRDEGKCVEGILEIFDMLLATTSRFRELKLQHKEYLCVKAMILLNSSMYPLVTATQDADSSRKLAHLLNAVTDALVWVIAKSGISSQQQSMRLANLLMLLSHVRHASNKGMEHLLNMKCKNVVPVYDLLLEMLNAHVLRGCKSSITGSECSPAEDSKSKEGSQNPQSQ

SMILES	inhibition at 1 µM (17β-HSD2 [1]) [%]	IC50 (17β-HSD2 [2]) [nM]	ERβ RBA (%) (ERβ)	IC50 (17β-HSD1) [nM]	ERα RBA (%) (ERα)	effect on local level of E2 and T in bones (osteoporosis model)	inhibitory activity (17β-HSD2) (17β-HSD2 [3]; at 100 nM) [%]	inhibitory activity (17β-HSD2) (17β-HSD2 [3]; at 1 μM) [%]
CN(Cc1cccc(O)c1)C(=O)c1ccc(-c2ccccc2O)s1 [compound 28, N-(3-Hydroxybenzyl)-5-(2-hydroxyphenyl)-N-methylthiophene-2-carboxamide]	75	148	<0.1	2980	<0.1	–	–	–
COc1ccc(-c2ccc(C(=O)N(C)Cc3cccc(O)c3)s2)cc1 [compound 39, N-(3-Hydroxybenzyl)-5-(4-methoxyphenyl)-N-methylthiophene-2-carboxamide]	88	161	<0.1	> 40000	<0.1	–	–	–
COc1cccc(N(C)C(=O)c2ccc(-c3ccccc3)s2)c1 [compound 51, N-(3-Methoxyphenyl)-N-methyl-5-phenylthiophene-2-carboxamide]	67	207	<0.1	4340	<0.1	–	–	–
CN1C(=O)C[C@H](c2ccccc2)[C@@H]1[C@H](O)c1ccc(-c2cccnc2)s1 [inhibitor 3]	–	–	–	–	–	helps to maintain a sufficient local level of E2 and T in bones	–	–
C[C@]12CCC3c4ccc(O)cc4CCC3C1CC[C@@]21CCCC(=O)O1 (stereo partly drawn) [C17-spirolactone 1]	–	–	–	–	–	–	40	70
Cc1cccc(N(C)C(=O)c2ccc(-c3cccc(O)c3)s2)c1 [compound 71, 5-(3-Hydroxyphenyl)-N-methyl-N-m-tolylthiophene-2-carboxamide]	–	644	<0.1	6800	<0.1	–	–	–
COc1cccc(N(C)C(=O)c2ccc(-c3cccc(OC)c3F)s2)c1 [compound 56, 5-(2-Fluoro-3-methoxyphenyl)-N-(3-methoxyphenyl)-N-methylthiophene-2-carboxamide]	70	62	<0.1	–	<0.1	–	–	–
COc1cccc(CN(C)C(=O)c2ccc(-c3cccc(OC)c3)s2)c1 [compound 23, N-(3-Methoxybenzyl)-5-(3-methoxyphenyl)-N-methylthiophene-2-carboxamide]	–	370	<0.1	> 100000	<0.1	–	–	–
COc1cccc(-c2ccc(C(=O)N(C)c3cccc(C)c3)s2)c1 [compound 70, 5-(3-Methoxyphenyl)-N-methyl-N-m-tolylthiophene-2-carboxamide]	50	207	<0.1	11500	<0.1	–	–	–
CN(Cc1cccc(O)c1)C(=O)c1ccc(-c2cccc(O)c2)s1 [compound 24, N-(3-Hydroxybenzyl)-5-(3-hydroxyphenyl)-N-methylthiophene-2-carboxamide]	–	394	<0.1	> 5450	<0.1	–	–	–

— patent US20140057953A1, “BIARYL DERIVATIVES AS SELECTIVE 17BETA-HYDROXYSTEROID DEHYDROGENASE TYPE 2 INHIBITORS” (priority 2011, published 2014)
